Assay results reported in ChEMBL document CHEMBL5055690, “Introducing the Tellurophene-Appended BODIPY: PDT Agent with Mass Cytometry Tracking Capabilities” (ACS Med Chem Lett, 2021).
Calls of active or inactive are those of the source. No cut-off for these calls is given here.

Legend:
[1] = test system: HeLa; experiment: Dark toxicity in human HeLa cells assessed as reduction in cell viability measured after 3 hrs by MTT assay; type: cell-based
[2] = test system: HeLa; experiment: Induction of ROS generation in human HeLa cells at 25 nM preincubated for 3 hrs followed by irradiation with 23.6 milliwolt/cm2 of 525 nanometer laser light for 5 mins and measured by DCFDA staining based flourescence method; type: functional, cell-based; conditions: time 185.0 min
[3] = test system: HeLa; experiment: Induction of ROS generation in human HeLa cells at 25 nM measured after 3 hrs by DCFDA staining based flourescence assay; type: cell-based; conditions: 0.025 µM
[4] = test system: HeLa; experiment: Induction of apoptosis in human HeLa cells at 1.25 nM preincubated for 3 hrs followed by irradiation with 23.6 milliwolt/cm2 of 525 nanometer laser light for 5 mins and measured after 4 hrs by Annexin V/PI staining based flowcytometry assay; type: functional, cell-based; conditions: time 185.0 min
[5] = test system: HeLa; experiment: Induction of apoptosis in human HeLa spheroids assessed as cell death at 100 nM preincubated for 3 hrs followed by irradiation with 23.6 milliwolt/cm2 of 525 nanometer laser light for 5 mins and measured after overnight by plate reader assay; type: functional, cell-based; conditions: time 185.0 min
[6] = Drug uptake in human HeLa cells assessed as drug accumulation at 25 to 1000 nM incubated for 3 hrs under dark condition by […] mass cytometry; type: ADME, cell-based; conditions: 1 µM, dose 25-1000 nM
[7] = Induction of singlet oxygen generation in DMF solution assessed as singlet oxygen quantum yield irradiated with 490 nanometer LED light by DPBF-based assay; type: functional

## F[B-]1(F)n2cccc2C(c2ccc(-c3ccc[te]3)cc2)=C2C=CC=[N+]21
[1]
  IC50: 1350 nM
[2]
  Activity: Active
[3]
  Activity: Non-Toxic
[4]
  Activity: Active
[5]
  Activity: Active
[6]
  Drug uptake: Active
[7]
  Activity: 0.26
